Reference: publication PMC8836258, “Structural Basis of Redox-Sensing Transcriptional Repressor Rex with Cofactor NAD^+ and Operator DNA” (International Journal of Molecular Sciences, 2022)

Target: T1, Tma Rex (Thermotoga maritima, UniProt Q9WY16)
T1 construct: gene rex1; Full-length, residues 1-208 (5-207 modelled); homodimer; P-loop residues 89-94 GAGNIG; crystallised with 22-bp TM0201 operator DNA
T1 sequence (Q9WY16 1-208): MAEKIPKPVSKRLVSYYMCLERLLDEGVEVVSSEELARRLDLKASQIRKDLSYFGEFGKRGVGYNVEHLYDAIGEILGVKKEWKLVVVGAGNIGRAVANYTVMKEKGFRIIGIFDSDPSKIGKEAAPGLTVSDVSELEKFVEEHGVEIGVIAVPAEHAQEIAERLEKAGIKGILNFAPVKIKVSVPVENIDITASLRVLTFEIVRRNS
Test: X-ray crystallography, co-crystal structure at […] A
Assay type: binding
Details: ternary complex with 22-bp TM0201 operator DNA; 1 mM NAD+ in co-crystallization; pH 6.5, 296 K; one NAD+ per monomer, C-terminal Rossmann domain near dimer interface

Structure (SMILES): NC(=O)c1ccc[n+]([C@@H]2O[C@H](COP(=O)(O)OP(=O)(O)OC[C@H]3O[C@@H](n4cnc5c(N)ncnc54)[C@H](O)[C@@H]3O)[C@@H](O)[C@H]2O)c1 [NAD^+]
- X-ray crystallography, co-crystal structure at 2.40 A: a dimeric Rex protein bound to one molecule of NAD^+ per monomer
